Earlier results in patent publication US20190125725A1, “PHARMACEUTICAL COMPOSITIONS COMPRISING BRIVARACETAM” (Jubilant Generics Limited, priority 2016, published 2019).

Details: High solubility and permeability

Question: Which “Biopharmaceutics Classification System class” value does the source give for `CCC[C@@H]1CC(=O)N([C@@H](CC)C(N)=O)C1` [Brivaracetam, (2S)-2-[(4R)-2-oxo-4-propyltetrahydro-1H-pyrrol-1-yl] butanamide] here?
Answer: class I
